Experimental data: the supplement of paper PMC13207355

How the values were obtained:
Settings in all cases: exposure time: 72 h
E13 [1] = patient-derived glioblastoma stem cells of classical subtype; test: phenotypic distance (Euclidean, principal components) from DMSO controls (arbitrary units); higher = stronger morphological change
E31 [2] = patient-derived glioblastoma stem cells of proneural subtype; test: as above
E28 [3] = patient-derived glioblastoma stem cells of classical subtype; test: as above
FT3469 [4] = normal neural stem cell line; test: as above
E34 [5] = patient-derived glioblastoma stem cells of proneural subtype; test: as above
E57 [6] = patient-derived glioblastoma stem cells of mesenchymal subtype; test: as above
E21 [7] = patient-derived glioblastoma stem cells of mesenchymal subtype; test: as above
E13 [8] = test: surviving fraction (nuclei count normalised to DMSO); higher = more cells surviving (less toxic)
E31 [9] = test: as above
E28 [10] = test: as above
FT3469 [11] = test: as above
E34 [12] = test: as above
E57 [13] = test: as above
E21 [14] = test: as above
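For phenotypic distance (Euclidean, principal components) from DMSO controls in this document: cell Painting imaging in 384-well plates, CellProfiler features reduced to at least 20 principal components, Euclidean distance versus same-plate DMSO vehicle wells (0.1% v/v), median over six images per well.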
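For surviving fraction (nuclei count normalised to DMSO) in this document: nuclei counted by high-content imaging of Hoechst-stained cells in laminin-coated 384-well plates, relative to 0.1% DMSO vehicle wells, with staurosporine as cell-death control.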

C[C@@H]1C[C@@H]([C@H](O)CC2CC(=O)NC(=O)C2)C(=O)[C@@H](C)C1 [Cycloheximide]
Settings | phenotypic distance | surviving fraction
E13 [1], 4.1 nM | 1.33 | –
E13 [1], 12.3 nM | 5.02 | –
E13 [1], 37 nM | 1.69 | –
E13 [1], 111.1 nM | 1.77 | –
E13 [1], 333.3 nM | 3.18 | –
E13 [1], 1000 nM | 3.1 | –
E13 [1], 3000 nM | 4.48 | –
E13 [8], 4.1 nM | – | 0.769
E13 [8], 12.3 nM | – | 0.713
E13 [8], 37 nM | – | 0.644
E13 [8], 111.1 nM | – | 0.654
E13 [8], 333.3 nM | – | 0.436
E13 [8], 1000 nM | – | 0.408
E13 [8], 3000 nM | – | 0.306
E21 [7], 4.1 nM | 1.69 | –
E21 [7], 12.3 nM | 1.77 | –
E21 [7], 37 nM | 2.65 | –
E21 [7], 111.1 nM | 3.3 | –
E21 [7], 333.3 nM | 5.28 | –
E21 [7], 1000 nM | 4.65 | –
E21 [7], 3000 nM | 3.46 | –
E21 [14], 4.1 nM | – | 0.753
E21 [14], 12.3 nM | – | 0.688
E21 [14], 37 nM | – | 0.532
E21 [14], 111.1 nM | – | 0.518
E21 [14], 333.3 nM | – | 0.443
E21 [14], 1000 nM | – | 0.356
E21 [14], 3000 nM | – | 0.305
E28 [3], 4.1 nM | 0.801 | –
E28 [3], 12.3 nM | 0.904 | –
E28 [3], 37 nM | 0.979 | –
E28 [3], 111.1 nM | 1.14 | –
E28 [3], 333.3 nM | 1.17 | –
E28 [3], 1000 nM | 1.95 | –
E28 [3], 3000 nM | 2.12 | –
E28 [10], 4.1 nM | – | 0.899
E28 [10], 12.3 nM | – | 0.76
E28 [10], 37 nM | – | 0.771
E28 [10], 111.1 nM | – | 0.592
E28 [10], 333.3 nM | – | 0.542
E28 [10], 1000 nM | – | 0.346
E28 [10], 3000 nM | – | 0.451
E31 [2], 4.1 nM | 0.95 | –
E31 [2], 12.3 nM | 0.932 | –
E31 [2], 37 nM | 1.32 | –
E31 [2], 111.1 nM | 1.7 | –
E31 [2], 333.3 nM | 2.21 | –
E31 [2], 1000 nM | 2.11 | –
E31 [2], 3000 nM | 3 | –
E31 [9], 4.1 nM | – | 0.854
E31 [9], 12.3 nM | – | 0.905
E31 [9], 37 nM | – | 0.703
E31 [9], 111.1 nM | – | 0.684
E31 [9], 333.3 nM | – | 0.477
E31 [9], 1000 nM | – | 0.297
E31 [9], 3000 nM | – | 0.261
E34 [5], 4.1 nM | 1.3 | –
E34 [5], 12.3 nM | 0.758 | –
E34 [5], 37 nM | 0.919 | –
E34 [5], 111.1 nM | 1.49 | –
E34 [5], 333.3 nM | 1.35 | –
E34 [5], 1000 nM | 2.05 | –
E34 [5], 3000 nM | 3.12 | –
E34 [12], 4.1 nM | – | 0.885
E34 [12], 12.3 nM | – | 0.873
E34 [12], 37 nM | – | 0.815
E34 [12], 111.1 nM | – | 0.616
E34 [12], 333.3 nM | – | 0.562
E34 [12], 1000 nM | – | 0.584
E34 [12], 3000 nM | – | 0.414
E57 [6], 4.1 nM | 1.49 | –
E57 [6], 12.3 nM | 1.61 | –
E57 [6], 37 nM | 2.55 | –
E57 [6], 111.1 nM | 2.56 | –
E57 [6], 333.3 nM | 4.4 | –
E57 [6], 1000 nM | 4.89 | –
E57 [6], 3000 nM | 4.79 | –
E57 [13], 4.1 nM | – | 0.723
E57 [13], 12.3 nM | – | 0.694
E57 [13], 37 nM | – | 0.546
E57 [13], 111.1 nM | – | 0.511
E57 [13], 333.3 nM | – | 0.322
E57 [13], 1000 nM | – | 0.323
E57 [13], 3000 nM | – | 0.227
FT3469 [4], 4.1 nM | 0.852 | –
FT3469 [4], 12.3 nM | 0.622 | –
FT3469 [4], 37 nM | 1.06 | –
FT3469 [4], 111.1 nM | 1.36 | –
FT3469 [4], 333.3 nM | 5.19 | –
FT3469 [4], 1000 nM | 1.49 | –
FT3469 [4], 3000 nM | 1.95 | –
FT3469 [11], 4.1 nM | – | 0.912
FT3469 [11], 12.3 nM | – | 0.753
FT3469 [11], 37 nM | – | 0.87
FT3469 [11], 111.1 nM | – | 0.918
FT3469 [11], 333.3 nM | – | 0.691
FT3469 [11], 1000 nM | – | 0.723
FT3469 [11], 3000 nM | – | 0.633

Nc1ccn([C@@H]2O[C@H](CO)[C@@H](O)[C@@H]2O)c(=O)n1 [Cytarabine]
Settings | phenotypic distance | surviving fraction
E13 [1], 4.1 nM | 0.95 | –
E13 [1], 12.3 nM | 1.36 | –
E13 [1], 37 nM | 1.77 | –
E13 [1], 111.1 nM | 2.69 | –
E13 [1], 333.3 nM | 4.49 | –
E13 [1], 1000 nM | 4.63 | –
E13 [1], 3000 nM | 4.85 | –
E13 [8], 4.1 nM | – | 0.893
E13 [8], 12.3 nM | – | 0.843
E13 [8], 37 nM | – | 0.673
E13 [8], 111.1 nM | – | 0.645
E13 [8], 333.3 nM | – | 0.42
E13 [8], 1000 nM | – | 0.448
E13 [8], 3000 nM | – | 0.389
E21 [7], 4.1 nM | 1.63 | –
E21 [7], 12.3 nM | 2.01 | –
E21 [7], 37 nM | 2.73 | –
E21 [7], 111.1 nM | 3.44 | –
E21 [7], 333.3 nM | 4.54 | –
E21 [7], 1000 nM | 4.75 | –
E21 [7], 3000 nM | 5.65 | –
E21 [14], 4.1 nM | – | 0.787
E21 [14], 12.3 nM | – | 0.77
E21 [14], 37 nM | – | 0.649
E21 [14], 111.1 nM | – | 0.533
E21 [14], 333.3 nM | – | 0.339
E21 [14], 1000 nM | – | 0.236
E21 [14], 3000 nM | – | 0.154
E28 [3], 4.1 nM | 1.71 | –
E28 [3], 12.3 nM | 1.24 | –
E28 [3], 37 nM | 1.72 | –
E28 [3], 111.1 nM | 2.6 | –
E28 [3], 333.3 nM | 2.45 | –
E28 [3], 1000 nM | 2.47 | –
E28 [3], 3000 nM | 3.27 | –
E28 [10], 4.1 nM | – | 0.778
E28 [10], 12.3 nM | – | 0.775
E28 [10], 37 nM | – | 0.542
E28 [10], 111.1 nM | – | 0.586
E28 [10], 333.3 nM | – | 0.474
E28 [10], 1000 nM | – | 0.511
E28 [10], 3000 nM | – | 0.333
E31 [2], 4.1 nM | 1.02 | –
E31 [2], 12.3 nM | 1.8 | –
E31 [2], 37 nM | 1.75 | –
E31 [2], 111.1 nM | 3.19 | –
E31 [2], 333.3 nM | 3.48 | –
E31 [2], 1000 nM | 3.7 | –
E31 [2], 3000 nM | 4.49 | –
E31 [9], 4.1 nM | – | 0.861
E31 [9], 12.3 nM | – | 0.637
E31 [9], 37 nM | – | 0.463
E31 [9], 111.1 nM | – | 0.312
E31 [9], 333.3 nM | – | 0.149
E31 [9], 1000 nM | – | 0.127
E31 [9], 3000 nM | – | 0.126
E34 [5], 4.1 nM | 1.44 | –
E34 [5], 12.3 nM | 1.82 | –
E34 [5], 37 nM | 2.13 | –
E34 [5], 111.1 nM | 3.16 | –
E34 [5], 333.3 nM | 3.2 | –
E34 [5], 1000 nM | 3.33 | –
E34 [5], 3000 nM | 3.62 | –
E34 [12], 4.1 nM | – | 0.892
E34 [12], 12.3 nM | – | 0.803
E34 [12], 37 nM | – | 0.723
E34 [12], 111.1 nM | – | 0.687
E34 [12], 333.3 nM | – | 0.555
E34 [12], 1000 nM | – | 0.514
E34 [12], 3000 nM | – | 0.466
E57 [6], 4.1 nM | 2.41 | –
E57 [6], 12.3 nM | 3.28 | –
E57 [6], 37 nM | 4.72 | –
E57 [6], 111.1 nM | 6.26 | –
E57 [6], 333.3 nM | 7.13 | –
E57 [6], 1000 nM | 6.77 | –
E57 [6], 3000 nM | 6.62 | –
E57 [13], 4.1 nM | – | 0.687
E57 [13], 12.3 nM | – | 0.62
E57 [13], 37 nM | – | 0.443
E57 [13], 111.1 nM | – | 0.316
E57 [13], 333.3 nM | – | 0.179
E57 [13], 1000 nM | – | 0.179
E57 [13], 3000 nM | – | 0.161
FT3469 [4], 4.1 nM | 1.13 | –
FT3469 [4], 12.3 nM | 1.74 | –
FT3469 [4], 37 nM | 1.5 | –
FT3469 [4], 111.1 nM | 1.8 | –
FT3469 [4], 333.3 nM | 2.13 | –
FT3469 [4], 1000 nM | 1.94 | –
FT3469 [4], 3000 nM | 1.69 | –
FT3469 [11], 4.1 nM | – | 0.758
FT3469 [11], 12.3 nM | – | 0.684
FT3469 [11], 37 nM | – | 0.654
FT3469 [11], 111.1 nM | – | 0.753
FT3469 [11], 333.3 nM | – | 0.684
FT3469 [11], 1000 nM | – | 0.553
FT3469 [11], 3000 nM | – | 0.62
